Experimental data from paper PMC12844998, “Bridging the Knowledge Gap in Harmaline’s Pharmacological Properties: A Focus on Thermodynamics and Kinetics” (Pharmaceutics, 2025).
Converted amounts (≈) assume the structure as drawn. “And” between values parts separate entries of the source, which are not always exact repeats. Equal entries are not always repeated. “Also recorded” adds a separate entry of the source. Where two headings read alike, the source gives them in different places.

Experiments:
[1] = Equilibrium solubility, shake-flask method; format: physicochemical; details: for solubility at 24 h: Hex, organic solvent or mixture, thermodynamic from solid, value given as S2×10^5, read-out: solubility S2∙105
Experimental: The equilibrium solubility of HML was measured by the shake-flask method over a wide temperature range of 293.15–313.15 K. Briefly, glass vials containing the respective solvent were charged with an excess of the drug. The vials were shaken at a predetermined temperature for 24 h—a duration previously established as sufficient to reach equilibrium between the solid and liquid phases. Following shaking, samples were equilibrated for ~5 h to prevent supersaturation and then centrifuged (10,000 rpm, 10 min; Biofuge pico, Thermo Electron LED GmbH, Osterode am Harz, Germany) at constant temperature. Concentrations were determined spectrophotometrically at 373 nm using a Cary-50 instrument (Varian, Palo Alto, CA, USA; software version 3.00 (339)) based on calibration curves. Data are presented as the mean ± standard deviation (or standard error) of at least three independent replicates. The error bars represent the standard deviation (SD), which ranged from 2% to 4% of the mean.

[2] = Permeability in Franz diffusion cell, polydimethylsiloxane-polycarbonate membrane; format: in vitro ADME; details: pH 7.4, 310.15 K
Experimental: (§1) Permeability coefficients were measured in a vertical type Franz diffusion cell (PermeGear, Inc., Hellertown, PA, USA) maintained at 37 °C, with an effective diffusion area of 0.785 cm^2. The volumes of the donor (lower) and the acceptor (upper) compartments were 7 mL and 2 mL, respectively. Three artificial membranes were used in the study: Regenerated cellulose (RC): Standard Grade RC Dialysis Membrane with a molecular weight cut-off (MWCO) of 12–14 kDa and a flat width of 45 mm; PermeaPad barrier (PP): A commercially available barrier (PHABIOC, Fritz-Souchon-Str. 27, 32339 Espelkamp, Germany; www.innome.de), originally proposed by di Cagno et al.; Polydimethylsiloxane-polycarbonate membrane (PDS): A “Carbosil” membrane composed of 55% polydimethylsiloxane and 45% polycarbonate (PENTAMED, Moscow, Russia; https://medpolymer.ru/).
(§2) A solution of HML in pH 7.4 (7 mL) was placed into the donor chamber of a Franz cell. The acceptor compartment was filled with pure buffer pH 7.4 (1 mL). Over a period of 5 h, 0.5 mL samples were withdrawn from the acceptor compartment at 30 min intervals and replaced with an equal volume of fresh pH 7.4 buffer. The sample concentrations were determined by UV-Vis spectroscopy (Cary-50, Varian, Palo Alto, CA, USA; Software Version 3.00 (339)) or by HPLC (for experiments involving the polydimethylsiloxane-polycarbonate membrane). The cumulative amount of drug permeated through the membrane was plotted as a function of time. The flux was determined from the slope of the linear portion of each curve. The permeability coefficient was calculated using the following equation:(4) Papp=J/C0 where J is the flux, and C0 is the concentration of HML in the donor solution. A reverse dialysis setup was employed, where the lower chamber served as the donor compartment and was filled with the drug solution. Sink conditions were maintained in all experiments, meaning the drug concentration in the acceptor compartment never exceeded 10% of its concentration in the donor compartment at any time according the recommendations proposed in [18].
Samples from the acceptor compartment after permeation through the PDS membrane were analyzed by HPLC using a Shimadzu Prominence LC-20 AD system(Shimadzu Corporation, Kyoto, Japan) equipped with a PDA detector and a Luna® C-18 column (150 × 4.6 mm i.d., 5 μm particle size, 100 Å pore size). The column temperature was maintained at 40 °C. The mobile phase consisted of acetonitrile and water (containing 0.1% trifluoroacetic acid) in a 20:80 (v/v) ratio. An isocratic elution was performed at a flow rate of 1.0 mL·min^−1. The injection volume was 20 μL. The analytes were detected by UV at 373 nm, with a retention time of approximately 4.5 min. […]

[3] = Kinetics of distribution in OctOH/pH 7.4 and IPM/pH 7.4 (1-5 h); format: physicochemical
Experimental: Distribution coefficients were measured at 1, 2, 3, 4, and 5 h in OctOH/pH 7.4 and IPM/pH 7.4 at 310.15 K to assess the kinetics of HML distribution.

[4] = undefined temperature, cited from earlier work
MDCK cells = experiment: Literature permeability across MDCK cells; format: in vitro ADME; details: literature MDCK (ref 12) vs PP Papp
[5] = Permeability in Franz diffusion cell, PermeaPad barrier; format: in vitro ADME
Experimental: as §1, §2

[6] = Transfer thermodynamics from van't Hoff plots of distribution coefficients; format: physicochemical; details: 298.15 K
Excerpt: (§3) The calculation of the thermodynamic parameters for the solubility and distribution processes was based on component concentrations expressed in terms of mole fractions. The standard calculation procedure and the respective equations are presented in the Supplementary Materials (Section S4).

[7] = Permeability in Franz diffusion cell, regenerated cellulose membrane; format: in vitro ADME; details: RC membrane, pH 7.4, 310.15 K
Experimental: as §1, §2

[8] = Dissolution thermodynamics from van't Hoff plots of solubility; format: physicochemical
Excerpt: as §3

Caco-2 monolayers = experiment: Literature permeability across Caco-2 monolayers; format: in vitro ADME; details: literature Caco-2 (ref 12) vs PP Papp
[9] = pH 7.4, comparison with literature ref 19

COc1ccc2c3c([nH]c2c1)C(C)=NCC3 [HML, Harmaline]
solubility at pH 2.0 relative to pH 7.4 (higher) ([1]; 310.15 K): 2.2 fold | solubility at 24 h ([1]; 293.15 K): 59.2 ± 1.3 µM (≈ 12.7 µg/mL) | solubility at 24 h ([1]; 295.15 K): 65 ± 1.1 µM (≈ 13.9 µg/mL) | solubility at 24 h ([1]; 298.15 K): 75.3 ± 1.2 µM (≈ 16.1 µg/mL) | solubility at 24 h ([1]; 303.15 K): 93.2 ± 1.7 µM (≈ 20 µg/mL) | solubility at 24 h ([1]; 308.15 K): 113.9 ± 0.7 µM (≈ 24.4 µg/mL) | solubility at 24 h ([1]; 310.15 K): 130 ± 3.2 µM (≈ 27.9 µg/mL) | solubility at 24 h ([1]; 313.15 K): 145 ± 4.1 µM (≈ 31 µg/mL) | solubility at pH 7.4 relative to reserpine (more soluble) [1, 9]: 42 fold | solubility at pH 7.4 relative to vincamine (more soluble) [1, 9]: 44 fold | logPapp ([2]; PDS membrane): −6.78 | steady state flux J ([2]; PDS membrane, C0 2.62 × 10^−3 M): 4.31 × 10^−7 µmol∙cm^−2∙s^−1 | Papp at 5 h ([2]; PDS membrane, read-out: permeability coefficient Papp): 0.165 ×10⁻⁶ cm/s | permeability coefficient for PDS, fold lower than for RC [2]: 299 fold | fold-change between saturation and 5 h distribution coefficients ([3]; IPM/pH 7.4, 310.15 K): 1.36 fold | increase of distribution from 1 to 5 h ([3]; IPM/pH 7.4, 310.15 K): 1.3 fold | fold-change between saturation and 5 h distribution coefficients ([3]; OctOH/pH 7.4, 310.15 K): 1.38 fold | increase of distribution from 1 to 5 h ([3]; OctOH/pH 7.4, 310.15 K): 1.2 fold | distribution coefficient n-heptane/aqueous (pH 7.4) ([4]; ref 19): 0.05 | distribution coefficient n-heptane/aqueous (pH 7.4) ([4]; ref 20): 0.11 | MDCK permeability coefficient, fold lower than PermeaPad result (MDCK cells): up to 2.3 fold | logPapp ([5]; PP barrier, pH 7.4, 310.15 K): −4.43 | steady state flux J ([5]; PP barrier, pH 7.4, 310.15 K, C0 2.23 × 10^−3 M): 8.28 × 10^−5 µmol∙cm^−2∙s^−1 | Papp at 5 h ([5]; PP barrier, pH 7.4, 310.15 K, read-out: permeability coefficient Papp): 37.1 ×10⁻⁶ cm/s | permeability classification (Di Cagno et al.) ([5]; PP barrier, high permeability if Papp > 2.04∙10^−5 cm∙s^−1): highly permeable; also recorded: high permeated substance | permeability coefficient for PP, fold lower than for RC ([5]; pH 7.4, 310.15 K): 1.3 fold | TΔStr0 ([6]; Hex→OctOH): 21.4±1.9 kJꞏmol-1 | distribution coefficient Dx (mole fraction scale) ([6]; Hex→OctOH): 993.14 | enthalpy contribution to transfer (ΔHtr0 share) ([6]; Hex→OctOH): 16.7% | entropy contribution to transfer (TΔStr0 share) ([6]; Hex→OctOH): 83.3% | ΔGtr0 ([6]; Hex→OctOH): -17.1±0.3 kJꞏmol-1 and −17.1 kJꞏmol-1 | ΔHtr0 ([6]; Hex→OctOH): 4.3±0.3 kJꞏmol-1 | TΔStr0 ([6]; pH 7.4→Hex): 23.4±1.0 kJꞏmol-1 | enthalpy contribution to transfer (ΔHtr0 share) ([6]; pH 7.4→Hex): 55.3% | entropy contribution to transfer (TΔStr0 share) ([6]; pH 7.4→Hex): 44.7% | ΔHtr0 ([6]; pH 7.4→Hex): 28.9±0.7 kJꞏmol-1 | TΔStr0 ([6]; pH 7.4→OctOH): 44.4±1.3 kJꞏmol-1 | distribution coefficient Dx (mole fraction scale) ([6]; pH 7.4→OctOH): 103.10 | enthalpy contribution to transfer (ΔHtr0 share) ([6]; pH 7.4→OctOH): 42.6% | entropy contribution to transfer (TΔStr0 share) ([6]; pH 7.4→OctOH): 57.4% | ΔGtr0 ([6]; pH 7.4→OctOH): -11.5±0.2 kJꞏmol-1 and −11.5 kJꞏmol-1 | ΔHtr0 ([6]; pH 7.4→OctOH): 32.9±0.3 kJꞏmol-1 | logPapp [7]: −4.31 | steady state flux J ([7]; C0 2.11 × 10^−3 M): 1.04 × 10^−4 µmol∙cm^−2∙s^−1 | Papp at 5 h ([7]; read-out: permeability coefficient Papp): 49.3 ×10⁻⁶ cm/s | Gibbs energy of solution ΔGsol0 ([8]; Hex, 298.15 K): 6.84 kcal/mol | enthalpy share of the total free energy change of dissolution ([8]; Hex, 298.15 K): 84% | entropy share of the total free energy change of dissolution ([8]; Hex, 298.15 K): 16% | Gibbs energy of solution ΔGsol0 ([8]; OctOH, 298.15 K): 2.89 kcal/mol | Gibbs energy of solution ΔGsol0 ([8]; pH 7.4, 298.15 K): 5.66 kcal/mol | maximum difference between Caco-2 model permeability and PermeaPad result (Caco-2 monolayers): ≤ 1.4 fold
